Experimental data taken from ChEMBL document CHEMBL1145846, “Discovery of allosteric potentiators for the metabotropic glutamate 2 receptor: synthesis and subtype selectivity of N-(4-(2-methoxyphenoxy)phenyl)-N-(2,2,2- trifluoroethylsulfonyl)pyrid-3-ylmethylamine” (J Med Chem, 2003).

Tests used:
[1] = target: Metabotropic glutamate receptor 3 (Homo sapiens, UniProt Q14832); assay: Effective concentration against human cloned Metabotropic glutamate receptor 3
[2] = target: T1, Metabotropic glutamate receptor 2 (Homo sapiens, UniProt Q14416); assay: Effective concentration against Metabotropic glutamate receptor 2
[3] = target: T1, Metabotropic glutamate receptor 2; assay: Ability to displace [3H]LY-341,495 at glutamate-site on Metabotropic glutamate receptor 2; No significant displacement

T1 sequence (Q14416 whole entry): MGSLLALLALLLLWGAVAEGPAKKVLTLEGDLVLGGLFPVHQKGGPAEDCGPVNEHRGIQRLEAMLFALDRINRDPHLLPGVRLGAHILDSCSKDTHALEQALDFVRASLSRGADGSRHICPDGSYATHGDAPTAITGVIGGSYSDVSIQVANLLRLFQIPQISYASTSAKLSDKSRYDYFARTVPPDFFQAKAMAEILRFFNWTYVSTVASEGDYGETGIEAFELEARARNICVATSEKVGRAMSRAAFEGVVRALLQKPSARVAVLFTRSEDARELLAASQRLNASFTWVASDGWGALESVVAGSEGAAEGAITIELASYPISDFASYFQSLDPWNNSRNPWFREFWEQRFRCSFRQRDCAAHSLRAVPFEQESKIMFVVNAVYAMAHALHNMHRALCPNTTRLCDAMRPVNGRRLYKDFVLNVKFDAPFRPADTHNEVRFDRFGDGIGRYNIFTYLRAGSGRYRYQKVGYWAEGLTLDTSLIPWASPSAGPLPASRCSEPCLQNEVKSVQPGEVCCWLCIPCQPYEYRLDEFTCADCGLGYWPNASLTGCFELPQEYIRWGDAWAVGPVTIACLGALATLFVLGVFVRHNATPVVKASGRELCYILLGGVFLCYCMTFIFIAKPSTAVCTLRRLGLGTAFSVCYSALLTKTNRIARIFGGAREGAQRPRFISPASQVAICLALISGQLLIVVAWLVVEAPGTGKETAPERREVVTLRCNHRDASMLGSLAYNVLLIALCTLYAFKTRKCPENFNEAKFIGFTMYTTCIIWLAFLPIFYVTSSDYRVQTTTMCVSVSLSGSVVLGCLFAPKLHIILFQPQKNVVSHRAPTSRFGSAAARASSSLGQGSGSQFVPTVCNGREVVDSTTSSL
Metabotropic glutamate receptor 3, sequence (Q14832 whole entry): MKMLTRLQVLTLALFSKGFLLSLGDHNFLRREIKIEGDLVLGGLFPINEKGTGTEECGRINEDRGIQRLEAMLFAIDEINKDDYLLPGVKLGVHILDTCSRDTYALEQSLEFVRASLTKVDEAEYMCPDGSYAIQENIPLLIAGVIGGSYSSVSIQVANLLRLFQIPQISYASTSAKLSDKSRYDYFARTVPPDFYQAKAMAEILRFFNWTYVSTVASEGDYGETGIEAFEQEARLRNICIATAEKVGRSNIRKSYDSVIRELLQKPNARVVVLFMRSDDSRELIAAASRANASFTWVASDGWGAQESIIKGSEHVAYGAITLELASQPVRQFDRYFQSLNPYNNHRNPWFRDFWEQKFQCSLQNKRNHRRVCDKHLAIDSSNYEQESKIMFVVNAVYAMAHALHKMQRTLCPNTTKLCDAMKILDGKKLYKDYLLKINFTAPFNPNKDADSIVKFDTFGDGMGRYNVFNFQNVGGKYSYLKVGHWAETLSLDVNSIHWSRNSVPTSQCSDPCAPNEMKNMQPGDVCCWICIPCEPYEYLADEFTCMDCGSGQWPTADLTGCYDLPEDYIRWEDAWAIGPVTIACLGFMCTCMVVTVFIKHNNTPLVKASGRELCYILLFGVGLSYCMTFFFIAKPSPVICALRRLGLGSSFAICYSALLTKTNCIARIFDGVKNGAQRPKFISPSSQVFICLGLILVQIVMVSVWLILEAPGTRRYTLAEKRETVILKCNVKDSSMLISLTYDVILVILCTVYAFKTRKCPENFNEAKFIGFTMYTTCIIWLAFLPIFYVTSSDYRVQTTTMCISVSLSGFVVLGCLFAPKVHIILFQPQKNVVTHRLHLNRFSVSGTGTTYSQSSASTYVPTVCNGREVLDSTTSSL

| Compound | EC50 [1] [µM] | EC50 [2] [µM] | IC50 [3] [µM] |
| --- | --- | --- | --- |
| CCS(=O)(=O)N(Cc1cccnc1)c1ccc(Oc2ccccc2)cc1 | > 12.5 | 1.5 | – |
| COc1ccccc1Oc1ccc(N(Cc2cccnc2)S(=O)(=O)CC(F)(F)F)cc1 | – | 0.27 | > 100 |
